Test [1] deals with T1, Protein cereblon/Histone-lysine N-methyltransferase NSD2 (Homo sapiens) (UniProt O96028+Q96SW2). Description: PROTAC activity at CRBN/NSD2 in human SEM cells assessed as induction of NSD2 degradation at 0.5 to 2 uM measured after 24 hrs by immunoblot analysis. The format is cell-based. To be noted: dose 0.5-2 µM.
Test [2] concerns the target T1, Protein cereblon/Histone-lysine N-methyltransferase NSD2 (Homo sapiens). In words: PROTAC activity at CRBN/NSD2 in human RPMI 8402 cells assessed as induction of NSD2 degradation at 0.5 to 2 uM measured after 24 hrs by immunoblot analysis. The test is classed as cell-based. As to conditions: dose 0.5-2 µM.
Test [3] shares this target. In words: PROTAC activity at CRBN/NSD2 in human SEM cells assessed as induction of NSD2 degradation at 2 uM measured after 12 to 24 hrs by immunoblot analysis. The format is cell-based. To be noted: time 12-24 hrs. Background: In western blotting, separated proteins are transferred to a membrane and probed.
Test [4] has the same target. Description: PROTAC activity at CRBN/NSD2 in human RPMI 8402 cells assessed as induction of NSD2 degradation at 2 uM measured after 12 to 24 hrs by immunoblot analysis. The test is classed as cell-based. To be noted: time 12-24 hrs.
For test [5] the target is unchanged. Description: PROTAC activity at CRBN/NSD2 in human SEM cells assessed as induction of NSD2 degradation at 2 uM measured upto 24 hrs by immunoblot analysis. The format is cell-based.
The target in test [6] is Protein cereblon/Eukaryotic peptide chain release factor GTP-binding subunit ERF3A (Homo sapiens) (UniProt Q96SW2+P15170). In words: PROTAC activity at CRBN/GSPT1 in human SEM cells assessed as decrease in GSPT1 level at 2 uM measured upto 24 hrs by immunoblot analysis. The format is cell-based.
Test [7] addresses T2, Histone-lysine N-methyltransferase NSD2 (Homo sapiens, UniProt O96028).
T2 sequence (O96028 whole entry): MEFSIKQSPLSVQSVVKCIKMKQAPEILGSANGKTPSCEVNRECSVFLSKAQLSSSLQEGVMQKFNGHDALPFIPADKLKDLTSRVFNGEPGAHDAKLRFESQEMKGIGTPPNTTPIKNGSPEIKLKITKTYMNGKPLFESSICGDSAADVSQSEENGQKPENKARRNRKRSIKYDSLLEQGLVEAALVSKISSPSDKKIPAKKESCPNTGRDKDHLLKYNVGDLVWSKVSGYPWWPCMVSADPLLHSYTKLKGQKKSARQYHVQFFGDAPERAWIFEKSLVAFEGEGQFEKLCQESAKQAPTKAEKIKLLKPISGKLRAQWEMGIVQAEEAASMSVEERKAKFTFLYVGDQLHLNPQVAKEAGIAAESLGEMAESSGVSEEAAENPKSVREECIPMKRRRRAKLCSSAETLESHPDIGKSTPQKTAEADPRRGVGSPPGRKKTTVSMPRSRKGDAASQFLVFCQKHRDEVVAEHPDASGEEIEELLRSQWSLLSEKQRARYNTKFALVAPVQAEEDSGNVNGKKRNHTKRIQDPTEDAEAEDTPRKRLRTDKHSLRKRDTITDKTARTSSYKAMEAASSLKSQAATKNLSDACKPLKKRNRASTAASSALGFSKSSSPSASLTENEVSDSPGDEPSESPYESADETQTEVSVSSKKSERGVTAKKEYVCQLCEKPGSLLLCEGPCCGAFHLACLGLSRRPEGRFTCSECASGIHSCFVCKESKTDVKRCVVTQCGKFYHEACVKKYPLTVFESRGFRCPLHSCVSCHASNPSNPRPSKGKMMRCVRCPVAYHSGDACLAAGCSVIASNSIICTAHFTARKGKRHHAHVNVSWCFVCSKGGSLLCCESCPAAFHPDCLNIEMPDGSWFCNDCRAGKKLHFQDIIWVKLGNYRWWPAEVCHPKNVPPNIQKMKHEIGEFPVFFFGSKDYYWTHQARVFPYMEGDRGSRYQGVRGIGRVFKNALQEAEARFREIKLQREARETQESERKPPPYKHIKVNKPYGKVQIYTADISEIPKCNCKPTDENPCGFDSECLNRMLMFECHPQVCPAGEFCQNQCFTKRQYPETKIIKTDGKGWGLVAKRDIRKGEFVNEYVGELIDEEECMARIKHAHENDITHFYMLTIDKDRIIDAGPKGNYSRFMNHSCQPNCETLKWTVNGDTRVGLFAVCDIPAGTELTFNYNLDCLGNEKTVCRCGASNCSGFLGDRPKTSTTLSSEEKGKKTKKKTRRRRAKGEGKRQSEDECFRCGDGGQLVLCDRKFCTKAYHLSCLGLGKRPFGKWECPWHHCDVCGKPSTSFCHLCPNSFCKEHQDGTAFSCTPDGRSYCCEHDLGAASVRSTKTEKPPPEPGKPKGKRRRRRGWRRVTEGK
Description: Induction of NSD2 degradation in HEK293FT cells measured after 48 hrs. The test is classed as cell-based.

Test [8] relates to RPMI 8402. In words: Inhibition of colony formation in human RPMI 8402 cells at 2 uM administered every three days for 30 days by iodonitrotetrazolium chloride staining based microscopy analysis. As to conditions: time 30.0 day. The test is classed as functional, cell-based.

Usually DC50 stands for the concentration at which degradation of the target reaches its halfway point.

Active and inactive are the calls of the source. No cut-off for these calls is given here.

T1 sequence (Q96SW2 whole entry, looked up, one chain of several): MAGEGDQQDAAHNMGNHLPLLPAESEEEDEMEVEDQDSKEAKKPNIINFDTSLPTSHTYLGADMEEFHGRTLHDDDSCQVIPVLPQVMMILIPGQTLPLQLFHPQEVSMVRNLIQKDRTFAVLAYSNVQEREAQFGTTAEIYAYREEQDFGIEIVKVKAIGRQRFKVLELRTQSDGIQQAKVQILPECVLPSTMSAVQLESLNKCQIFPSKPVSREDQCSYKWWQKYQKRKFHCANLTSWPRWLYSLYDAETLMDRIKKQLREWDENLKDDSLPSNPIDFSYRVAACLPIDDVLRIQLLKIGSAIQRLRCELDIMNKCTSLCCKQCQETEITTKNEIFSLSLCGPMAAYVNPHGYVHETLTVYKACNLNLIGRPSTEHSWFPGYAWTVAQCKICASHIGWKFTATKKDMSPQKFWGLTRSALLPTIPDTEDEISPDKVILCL
Chain of Protein cereblon/Eukaryotic peptide chain release factor GTP-binding subunit ERF3A (Homo sapiens) (P15170 whole entry, looked up): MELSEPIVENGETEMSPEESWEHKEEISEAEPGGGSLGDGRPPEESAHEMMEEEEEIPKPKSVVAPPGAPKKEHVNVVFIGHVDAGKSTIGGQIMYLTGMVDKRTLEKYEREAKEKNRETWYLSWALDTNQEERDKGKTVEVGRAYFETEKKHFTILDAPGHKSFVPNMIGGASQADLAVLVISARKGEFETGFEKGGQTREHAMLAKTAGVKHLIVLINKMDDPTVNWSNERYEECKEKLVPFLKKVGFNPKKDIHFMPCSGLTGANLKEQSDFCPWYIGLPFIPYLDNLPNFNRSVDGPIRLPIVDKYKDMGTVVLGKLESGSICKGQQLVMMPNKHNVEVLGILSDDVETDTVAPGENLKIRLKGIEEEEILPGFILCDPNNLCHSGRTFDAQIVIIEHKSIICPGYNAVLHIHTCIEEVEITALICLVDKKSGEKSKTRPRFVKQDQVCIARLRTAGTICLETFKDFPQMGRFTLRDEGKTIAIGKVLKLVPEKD
Chain of Protein cereblon/Eukaryotic peptide chain release factor GTP-binding subunit ERF3A (Homo sapiens) (Q96SW2 whole entry, looked up): as the sequence (Q96SW2 whole entry, looked up, one chain of several) above

On to `NCCCCCCNC(=O)c1ccc(NC(=O)c2ccc(CN(C(=O)c3ccc4c(c3)OCC(=O)N4)C3CC3)cc2)cc1`, for which the result in test [1], in test [2], in test [3] and in test [4] was inactive.
For the compound `CC(C)N(Cc1ccc(C(=O)Nc2ccc(C(=O)NC3CCN(c4ccc5c(c4)C(=O)N(C4CCC(=O)NC4=O)C5=O)CC3)cc2)cc1)C(=O)c1ccc2c(c1)OCC(=O)N2` (stereo unspecified), in test [5], the outcome was inactive. For the same compound, the result in test [6] was Active.
Consider `O=C(CNc1cccc2c1C(=O)N(C1CCC(=O)NC1=O)C2=O)NCCCOc1ccc(NC(=O)c2ccc(CN(C(=O)c3ccc4c(c3)OCC(=O)N4)C3CC3)cc2)nc1` (stereo unspecified), for which the result in test [1], in test [2], in test [3] and in test [4] was inactive. Half-maximal degradation in test [7] (DC50) was put at 5.2 µM.
As to `CN1C(=O)CCC(N2C(=O)c3ccc(N4CCC(NC(=O)c5ccc(NC(=O)c6ccc(CN(C(=O)c7ccc8c(c7)OCC(=O)N8)C7CC7)cc6)cc5)CC4)cc3C2=O)C1=O` (stereo unspecified), the outcome in test [1], in test [2], in test [3] and in test [4] was inactive. Also, the inhibition entry in test [8] is “inactive”.
